Positions count from the first letter of the chain named. Like-named read-outs stand apart in the source and are kept apart here.
Legend:
BS-C-1 cells = experiment: Monoaster formation in tissue culture cells (manual count of mitotic cells); format: cell-based, green monkey; settings: Chlorocebus sabaeus, read-out: Cells: monoaster formation score (drug concentration with roughly equal monastral and bipolar spindles)
Procedure: (§1) Figure 2 Structure-activity relationship of monastrol derivatives. (A) Scheme depicting the Biginelli condensation, a one-pot reaction for preparing monastrol derivatives. […] Each data point is the average of three independent experiments. […] Each cell-based assay was performed in duplicate.
Conditions for growing the following cell lines are as described: D. rerio AB9 (37), D. melanogaster KC167 [38], and BS-C-1 green monkey kidney cells. For immunofluorescence microscopy, cells were grown on 12 mm circular coverslips to 30 % confluence, treated medium supplemented with drug and 0.2% DMSO, or a DMSO alone, for 6 hours, fixed with formaldehyde, and stained for DNA and microtubules, as described. D. melanogaster KC167 cells were cultured in Schneider's Drosophila Medium (GIBCO) whereas D. rerio AB9 cells and BS-C-1 green monkey kidney cells were cultured at 37°C in Dulbecco's Minimal medium in the presence of 10 % heat inactivated fetal calf serum.

hEg5-367H = target: T1, hEg5-367H (Homo sapiens, UniProt P52732); experiment: ATP hydrolysis by recombinant human Eg5 motor domain (NADH-enzyme coupled assay); format: biochemical; settings: for Activity as Eg5 inhibitor, in words: authors' assays
T1 construct: motor domain (amino acid residues 1–367) of human Eg5; His6 (C); made in house
T1 sequence (P52732 1-367): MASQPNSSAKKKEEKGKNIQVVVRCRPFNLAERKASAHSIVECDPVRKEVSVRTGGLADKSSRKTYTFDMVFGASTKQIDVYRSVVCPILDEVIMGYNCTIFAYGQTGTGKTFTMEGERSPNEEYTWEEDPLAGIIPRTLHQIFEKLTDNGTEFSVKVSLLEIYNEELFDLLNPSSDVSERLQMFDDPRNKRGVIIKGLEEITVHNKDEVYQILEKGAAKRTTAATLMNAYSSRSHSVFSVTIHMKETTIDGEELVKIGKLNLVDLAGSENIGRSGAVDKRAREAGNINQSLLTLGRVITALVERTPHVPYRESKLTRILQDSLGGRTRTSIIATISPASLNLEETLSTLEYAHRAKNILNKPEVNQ
Procedure: as §1
We used a modified PCR mutagenesis protocol to introduce mutations into hEg5-367H, a plasmid encoding the C-terminally His6-tagged motor domain (amino acid residues 1–367) of human Eg5. The wild-type and mutant proteins were expressed and purified using Ni-NTA affinity chromatography and concentrated to between 3 and 10 mg/ml protein as described.
(§2) ATP hydrolysis by recombinantly expressed kinesin motor domains was measured using an NADH-enzyme coupled assay. ATP hydrolysis was measured in KC25 buffer supplemented with 5 μM taxol, 1 mM ATP-KOH (pH 7.0), the appropriate concentration of motor domain, and the appropriate concentrations of taxol-polymerized microtubules.

Eg5 = settings: cited from earlier work
hEg5-367H (L214T) = target: T2, hEg5-367H (L214T) (Homo sapiens, UniProt P52732, L214T); experiment: ATP hydrolysis by Eg5 motor domain mutant L214T; format: biochemical; settings: data not shown
T2 construct: motor domain (amino acid residues 1–367) of human Eg5; His6 (C); made in house
T2 sequence (P52732 1-367 L214T): T1 sequence (P52732 1-367) with L214T
Description: Figure 4 Mutagenesis of the monastrol binding site in human Eg5. (A) Design of mutations in the human Eg5 motor domain. Amino acid side chains that are not conserved between Eg5 and conventional kinesin were targeted, either introducing chimeric or rationally designed mutations (asterix for targeted point mutants) to test the contribution of residues to the drug-sensitivity of Eg5. (B) Steady-state enzymatic parameters for engineered human Eg5 motor domain mutants. Steady-state ATP hydrolysis by Eg5 was measured using an NADH-enzyme coupled assay varying the concentration of ATP, microtubules, or monastrol to obtain the microtubule concentration for half-maximal stimulation (K0.5MT), the maximal rate of microtubule-stimulated ATP hydrolysis (kcat), and the concentration of monastrol that inhibits basal ATP hydrolysis by 50 % (IC50), as described.
We used a modified PCR mutagenesis protocol to introduce mutations into hEg5-367H, a plasmid encoding the C-terminally His6-tagged motor domain (amino acid residues 1–367) of human Eg5. […]
as §2

Klp61F-364H = target: T3, Klp61F-364H (Drosophila melanogaster, UniProt P46863); experiment: ATP hydrolysis by Klp-61F motor domain (NADH-enzyme coupled assay); format: biochemical, D. melanogaster
T3 construct: His6 (C); made in house; host or cells: vector pRSETa
T3 sequence (P46863 1-364): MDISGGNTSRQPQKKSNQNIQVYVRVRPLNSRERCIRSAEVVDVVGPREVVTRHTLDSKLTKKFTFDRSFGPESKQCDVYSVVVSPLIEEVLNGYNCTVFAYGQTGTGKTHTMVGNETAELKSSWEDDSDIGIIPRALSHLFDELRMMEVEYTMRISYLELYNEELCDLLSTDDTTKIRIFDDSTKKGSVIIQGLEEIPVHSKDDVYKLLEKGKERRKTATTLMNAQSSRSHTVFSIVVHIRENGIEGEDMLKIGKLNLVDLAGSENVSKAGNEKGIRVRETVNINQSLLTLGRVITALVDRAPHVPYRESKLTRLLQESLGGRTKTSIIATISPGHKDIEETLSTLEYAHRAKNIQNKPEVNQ
Procedure: Each data point is the average of three independent experiments.
as §2

[1] = 500 nM hEg5-367H, KC25 buffer, 1 mM ATP-KOH (pH 7.0), 1 μM taxol-stabilized microtubules
[2] = BSC-1, BS-C-1 cells, 6 hours treatment, duplicate
[3] = 500 nM hEg5-367H, KC25 buffer, 1 mM ATP-KOH (pH 7.0), 1 μM taxol-stabilized microtubules, read-out: IC50 (μM), inhibition of ATP hydrolysis by Eg5 motor domain

SMILES	EC50 (BS-C-1 cells; BSC-1, 6 h)	IC50 (hEg5-367H)	IC50 (μM), inhibition of ATP hydrolysis by Eg5 motor domain (hEg5-367H; [1])	other results
CCOC(=O)C1=C(C)N(C)C(=S)NC1c1cccc(O)c1 (centres unmarked) [Derivative 1, ethyl 6-methyl-4-(3-hydroxyphenyl)-2-thioxo-1-methyl-1,2,3,4-tetrahydropyrimidine-5-carboxylate]	< 50 µM	3.3 µM	–	–
CCOC(=O)C1=C(C)NC(=S)NC1c1cccc(F)c1 (centres unmarked) [Derivative 4c, ethyl 6-methyl-4-(3-fluorophenyl)-2-thioxo-1,2,3,4-tetrahydropyrimidine-5-carboxylate]	> 200 µM	–	Not Inhib.	–
CCOC(=O)C1=C(C)NC(=S)NC1c1cccc(OC)c1 (centres unmarked) [Derivative 4d, ethyl 6-methyl-4-(3-methoxyphenyl)-2-thioxo-1,2,3,4-tetrahydropyrimidine-5-carboxylate]	> 200 µM	–	Not Inhib.	–
CC1=C(C(=O)OCc2ccccc2)C(c2cccc(O)c2)NC(=S)N1 (centres unmarked) [Derivative 5c, benzyl 6-methyl-4-(3-hydroxyphenyl)-2-thioxo-1,2,3,4-tetrahydropyrimidine-5-carboxylate]	50 to 200 µM	21 µM	–	–
CCOC(=O)C1=C(C)NC(=S)NC1c1cccc(Br)c1 (centres unmarked) [Derivative 4e, ethyl 6-methyl-4-(3-bromophenyl)-2-thioxo-1,2,3,4-tetrahydropyrimidine-5-carboxylate]	–	–	–	Activity as Eg5 inhibitor, in words (hEg5-367H): completely inactive
N[C@@H](CSC(c1ccccc1)(c1ccccc1)c1ccccc1)C(=O)O [S-trityl cysteine]	–	–	–	Potency relative to monastrol (Eg5): more potent than monastrol
CCOC(=O)C1=C(C)NC(=S)NC1c1ccc(O)cc1 (centres unmarked) [Derivative 4b]	> 200 µM	–	Not Inhib.	–
CCOC(=O)C1=C(C)NC(=O)NC1c1cccc(O)c1 (centres unmarked) [Derivative 2, ethyl 6-methyl-4-(3-hydroxyphenyl)-2-oxo-1,2,3,4-tetrahydropyrimidine-5-carboxylate]	–	–	Not Inhib.	Drug sensitivity of L214T mutant, in words (hEg5-367H (L214T)): resistant; EC50 (BS-C-1 cells; [2]): > 200 µM; Activity as Eg5 inhibitor, in words (hEg5-367H): completely inactive
CCOC(=O)C1=C(C(C)C)NC(=S)NC1c1cccc(O)c1 (centres unmarked) [Derivative 6, ethyl 6-isopropyl-4-(3-hydroxyphenyl)-2-thioxo-1,2,3,4-tetrahydropyrimidine-5-carboxylate]	> 200 µM	–	Not Inhib.	–
CCOC(=O)C1=C(C)NC(=S)NC1c1ccccc1 (centres unmarked) [Derivative 4a, ethyl 6-methyl-4-phenyl-2-thioxo-1,2,3,4-tetrahydropyrimidine-5-carboxylate]	–	–	–	EC50 (BS-C-1 cells; [2]): > 200 µM; IC50 (hEg5-367H; [3]): > 200 µM
CCOC(=O)C1=C(C)NC(=S)N[C@H]1c1cccc(O)c1 [(S)-monastrol, reference compound]	–	6.1 ± 0.7 µM	–	IC50 (Klp61F-364H): 230 ± 4 µM
CC(=O)C1=C(C)NC(=S)NC1c1cccc(O)c1 (centres unmarked) [Derivative 5a, methyl 6-methyl-4-(3-hydroxyphenyl)-2-thioxo-1,2,3,4-tetrahydropyrimidine-5-ketone]	50 to 200 µM	25 µM	–	–
CC1=C(C(=O)OCC(C)C)C(c2cccc(O)c2)NC(=S)N1 (centres unmarked) [Derivative 5b, isobutyl 6-methyl-4-(3-hydroxyphenyl)-2-thioxo-1,2,3,4-tetrahydropyrimidine-5-carboxylate]	–	–	–	EC50 (BS-C-1 cells; [2]): < 50 µM; IC50 (hEg5-367H; [3]): 3.8 µM

From paper PMC1448180, “Small-molecule and mutational analysis of allosteric Eg5 inhibition by monastrol” (BMC Chemical Biology, 2006)
